Experimental findings from the supplement of paper PMC11781733 are described below.

Some results are limits rather than exact numbers.

What all share (settings): exposure time: 15 min to 3 h acute
Assay [1] deals with Dugesia japonica. Briefly: crawl-out incidence (% planarians); higher = higher incidence or increase relative to vehicle control. The procedure: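 Adult asexual Dugesia japonica planarians (1 per well, 48-well plate, n=24 over technical triplicates) were exposed acutely (15 min to 3 h) to each compound (0.5% DMSO or water vehicle) and screened on a robotic platform for crawl-out, stickiness, body shape, phototaxis, noxious-heat scrunching and locomotion endpoints. Binary endpoints are incidence rate x100. Continuous endpoints are the median response normalised to the plate vehicle median, as % change or difference. Negative incidences after vehicle subtraction were set to 0.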

The test system of assay [2] is Dugesia japonica. Kind of assay: corkscrew incidence (% planarians (vehicle-normalised)); higher = higher incidence or increase relative to vehicle control. In short, it runs like this:
(§1)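 In sealed 48-well plates holding one D. japonica planarian per well in 200 μL, worms fasted 5–7 days were exposed to at least 5 concentrations and screened within 15 minutes–3 hours. Contraction, C-shape, corkscrew and hyperkinesis were scored manually by a blinded researcher, and crawled-out worms were dropped. For each shape or for any abnormal shape, incidence is given ×100 after normalisation to vehicle controls on the plate, with negatives at 0.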

Assay [3] has as its system Dugesia japonica. Briefly: loss of heat-induced scrunching incidence (% planarians (vehicle-normalised)); higher = higher incidence or increase relative to vehicle control. In short, it runs like this: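 D. japonica planarians (fasted 5–7 days), one per well in 200 μL in sealed 48-well plates, were exposed to at least 5 concentrations (n = 24 per concentration, technical triplicates). They were tested within 15 minutes–3 hours for scrunching in response to a noxious heat stimulus; worms that crawled out were excluded. The value is the incidence ×100 of worms without scrunching, normalised to in-plate vehicle controls, with negatives set to 0.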

Assay [4] has as its system Dugesia japonica. Kind of assay: resting fraction in blue light vs vehicle (difference in fraction x100 vs vehicle); higher = higher incidence or increase relative to vehicle control. In short, it runs like this:
(§2)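 Resting fraction in the dark or under blue light was measured by automated tracking of intact, fasted Dugesia japonica, one per well of a 48-well plate in 200 μL. Worms were tested 15 min to 3 h after exposure in 0.5% DMSO or water vehicle. Eight worms per concentration per plate were run in technical triplicate (n = 24). The plate's vehicle median was subtracted from each worm, the difference was multiplied by 100, and the median is reported; worms that crawled out were excluded.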

Assay [5] has as its system Dugesia japonica. Kind of assay: stickiness incidence (% planarians (vehicle-normalised)); higher = higher incidence or increase relative to vehicle control. An outline of the steps: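 In the Stickiness assay, fasted Dugesia japonica planarians were each placed in one well of a sealed 48-well plate containing 200 μL of solution, with 0.5% DMSO or water as vehicle. Testing took place 15 min–3 h after exposure to half- or quarter-log concentration series. Stickiness was recorded as a binary endpoint, and its incidence was expressed relative to in-plate vehicle incidence after pooling technical triplicates and removing worms that crawled out. Negative values were set to 0 and all values were multiplied by 100.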

The test system of assay [6] is Dugesia japonica. Briefly: speed in dark vs vehicle (% change vs vehicle); higher = higher incidence or increase relative to vehicle control. The procedure:
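Adult asexual Dugesia japonica planarians (1 per well, 48-well plate, n=24 over technical triplicates) were exposed acutely (15 min to 3 h) to each compound (0.5% DMSO or water vehicle) and screened on a robotic platform for crawl-out, stickiness, body shape, phototaxis, noxious-heat scrunching and locomotion endpoints. Binary endpoints are incidence rate x100 normalised to in-plate vehicle controls. Continuous endpoints are the median response normalised to the plate vehicle median, as % change or difference. Negative incidences after vehicle subtraction were set to 0.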

The test system of assay [7] is Dugesia japonica. Kind of assay: contracted body shape incidence (% planarians (vehicle-normalised)); higher = higher incidence or increase relative to vehicle control. An outline of the steps: as §1
For assay [8], the system named is Dugesia japonica. Kind of assay: pharynx extrusion incidence (% planarians (vehicle-normalised)); higher = higher incidence or increase relative to vehicle control. An outline of the steps:
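Pharynx extrusion incidence in intact, fasted Dugesia japonica was scored blind and by hand as a body-shape category, then normalised to vehicle controls from the same plate. Each worm was held alone in a 48-well plate well containing 200 μL and tested 15 min to 3 h after exposure, with 0.5% DMSO or water as vehicle. Eight worms per concentration per plate were used in technical triplicate (n = 24). Negatives were set to 0, and worms that crawled out were excluded.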

The subject of assay [9] is Dugesia japonica. Kind of assay: total locomotor bursts minus vehicle (bursts difference vs vehicle); higher = higher incidence or increase relative to vehicle control. An outline of the steps:
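Fasted Dugesia japonica planarians, one per well of a sealed 48-well plate in 200 μL solution, were tested 15 min–3 h after exposure to half- or quarter-log concentration series. The vehicle was 0.5% DMSO or water. Total locomotor bursts, an unstimulated behaviour, came from image-based object tracking, with technical triplicates totalling n = 24. Each planarian's value had the plate vehicle-control median subtracted, without ×100 scaling. The value is the median normalised response, and crawled-out worms were excluded.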

The subject of assay [10] is Dugesia japonica. Kind of assay: anxiety (time in outer well region) vs vehicle (% change vs vehicle); higher = higher incidence or increase relative to vehicle control. An outline of the steps:
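Sealed 48-well plates held one D. japonica planarian per well in 200 μL, with worms fasted 5–7 days beforehand and tested at at least 5 concentrations (n = 24 per concentration). Screening took place within 15 minutes–3 hours. Using object tracking in MATLAB or Python, time spent in the outer part of the well was recorded, and worms that crawled out were excluded. Responses were divided by, or reduced by, the plate vehicle median and multiplied by 100, and the median is reported.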

In assay [11] the test system is Dugesia japonica. Briefly: speed second 30 s blue light vs vehicle (% change vs vehicle); higher = higher incidence or increase relative to vehicle control. In short, it runs like this:
(§3)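 Each value is the median percent change in crawling speed, with each worm normalised to the median of the vehicle worms on its plate. Intact, fasted Dugesia japonica were tracked automatically one per well in 48-well plates holding 200 μL, either in the dark or during blue-light periods. Testing ran from 15 min to 3 h after exposure, with 0.5% DMSO or water as vehicle. Eight worms per concentration per plate were run in technical triplicate (n = 24), and any worm that crawled out of the liquid was excluded.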

In assay [12] the test system is Dugesia japonica. Briefly: hyperkinesis incidence (% planarians (vehicle-normalised)); higher = higher incidence or increase relative to vehicle control. An outline of the steps:
as §1

Assay [13] concerns Dugesia japonica. Briefly: any abnormal body shape incidence (% planarians (vehicle-normalised)); higher = higher incidence or increase relative to vehicle control. An outline of the steps: as §1
The test system of assay [14] is Dugesia japonica. Briefly: loss of phototaxis incidence (% planarians (vehicle-normalised)); higher = higher incidence or increase relative to vehicle control. In short, it runs like this: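 Loss of phototaxis was scored as a yes/no endpoint in intact, fasted Dugesia japonica using automated object tracking. Each worm was held alone in a well of a 48-well plate in 200 μL and tested 15 min to 3 h after exposure in 0.5% DMSO or water vehicle. Eight worms per concentration per plate were run in technical triplicate (n = 24), and worms that crawled out were excluded. The incidence rate ×100 was normalised to in-plate vehicle controls, with negative values set to 0.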

In assay [15] the test system is Dugesia japonica. Briefly: speed first 30 s blue light vs vehicle (% change vs vehicle); higher = higher incidence or increase relative to vehicle control. An outline of the steps:
as §3

Assay [16] concerns Dugesia japonica. Briefly: resting fraction in dark vs vehicle (difference in fraction x100 vs vehicle); higher = higher incidence or increase relative to vehicle control. An outline of the steps: as §2
Assay [17] relates to Dugesia japonica. Kind of assay: C-shape incidence (% planarians (vehicle-normalised)); higher = higher incidence or increase relative to vehicle control. In short, it runs like this:
as §1

Assay [18] concerns Dugesia japonica. Kind of assay: noxious heat displacement strength vs vehicle (% change vs vehicle); higher = higher incidence or increase relative to vehicle control. An outline of the steps: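 Intact, fasted Dugesia japonica were held one per well in 48-well plates containing 200 μL and tested 15 min to 3 h after exposure in 0.5% DMSO or water vehicle. The scrunching assay with automated object tracking gave displacement strength under noxious heat, reported as the median percent change after normalising each worm to its plate's vehicle median. Worms that crawled out were excluded.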

Assay [19] deals with Dugesia japonica. Briefly: crawl-out incidence (% planarians); higher = higher incidence or increase relative to vehicle control. This is another data set of the same source.
The test system of assay [20] is Dugesia japonica. Kind of assay: speed in dark vs vehicle (% change vs vehicle); higher = higher incidence or increase relative to vehicle control. In short, it runs like this: as §3
The source holds these as a separate data set.

In the case of `Cc1cc2c(s1)Nc1ccccc1N=C2N1CCN(C)CC1` [olanzapine] (3.16 µM), the crawl-out incidence in [1] was found to be 4.17. In assay [2], the corkscrew incidence stood at 0. Further, in assay [3], the “loss of heat-induced scrunching incidence” value was found to be 45.8. The “resting fraction in blue light” value in assay [4] was found to be 34. In [5], this compound returned a stickiness incidence of no more than 0. The same compound showed a speed in dark in assay [6] of -69. Moreover, the “contracted body shape incidence” value in [7] is 0. Also, the pharynx extrusion incidence in [8] is 0. For the same compound, the “total locomotor bursts minus vehicle” value in [9] was 41.2. Further, in assay [10], the anxiety was -4.66. Also, the “speed second 30 s blue light” value in assay [11] was -75.2. This compound gave a hyperkinesis incidence in assay [12] of 54.2. The “any abnormal body shape incidence” value in assay [13] turned out to be 58.3. The “loss of phototaxis incidence” value in [14] was no more than 0. Moreover, in assay [15], the “speed first 30 s blue light” value is -79.2. In addition, the “resting fraction in dark” value in [16] was found to be 51.2. This compound registered a C-shape incidence in [17] of 8.33. Moreover, in assay [18], the “noxious heat displacement strength” value is -37.1.
`CN1CCN(C2=Nc3cc(Cl)ccc3Nc3ccccc32)CC1` [clozapine] (1 µM): the crawl-out incidence in [1] stood at 0. Further, the corkscrew incidence in assay [2] was determined as 0. Moreover, in [3], the “loss of heat-induced scrunching incidence” value amounted to 4.17. For the same compound, the “resting fraction in blue light” value in assay [4] worked out at 36.4. Moreover, in [5], the stickiness incidence is 4.17. The compound further yielded a speed in dark in assay [6] of -73.5. Moreover, in [7], the “contracted body shape incidence” value came to 4.17. This compound gave a pharynx extrusion incidence in [8] of 0. Moreover, in assay [9], the “total locomotor bursts minus vehicle” value was 38.8. For the same compound, the anxiety in assay [10] is -1.98. Besides, the “speed second 30 s blue light” value in assay [11] is -79.8. Also, the hyperkinesis incidence in assay [12] stood at 8.33. Further, in [13], the “any abnormal body shape incidence” value came out at 8.33. The “loss of phototaxis incidence” value in assay [14] came out at 8.33. Also, in assay [15], the “speed first 30 s blue light” value is -82. Also, the “resting fraction in dark” value in [16] came to 55.3. This compound registered a C-shape incidence in assay [17] of 0. For the same compound, the “noxious heat displacement strength” value in assay [18] was -43.5.
The compound `O=C(CCCN1CCC(O)(c2ccc(Cl)cc2)CC1)c1ccc(F)cc1` [haloperidol] (100 µM) returned a corkscrew incidence in assay [2] of 28.6. In addition, the “loss of heat-induced scrunching incidence” value in assay [3] turned out to be 34.8. Further, the crawl-out incidence in assay [19] is 4.17. Further, the “resting fraction in blue light” value in assay [4] worked out at 30.8. Besides, the stickiness incidence in assay [5] is no more than 0. For the same compound, the “contracted body shape incidence” value in assay [7] worked out at 0. Also, the pharynx extrusion incidence in assay [8] is 0. Further, the “total locomotor bursts minus vehicle” value in assay [9] stood at 25. In assay [10], this compound displayed an anxiety of 1.65. In addition, the “speed second 30 s blue light” value in assay [11] is -68.8. The same compound registered a hyperkinesis incidence in assay [12] of 19. Besides, in assay [13], the “any abnormal body shape incidence” value is 38.1. In [20], the speed in dark was -66.9. Also, the “loss of phototaxis incidence” value in [14] was 13. In addition, in assay [15], the “speed first 30 s blue light” value is -69.3. For the same compound, in [16], the “resting fraction in dark” value amounted to 48.4. The compound also yielded a C-shape incidence in assay [17] of 0. Besides, the “noxious heat displacement strength” value in assay [18] was -19.3.
Consider `O=C1CC2(CCCC2)CC(=O)N1CCCCN1CCN(c2ncccn2)CC1` [buspirone] (100 µM), for which, in [2], the corkscrew incidence is 4.76. Moreover, in [3], the “loss of heat-induced scrunching incidence” value came to 57.1. Moreover, the crawl-out incidence in [19] was 12.5. In addition, the “resting fraction in blue light” value in assay [4] worked out at 44.9. Also, the stickiness incidence in assay [5] came out at 19.1. Moreover, the “contracted body shape incidence” value in assay [7] came to 0. Also, the pharynx extrusion incidence in [8] stood at 0. For the same compound, in assay [9], the “total locomotor bursts minus vehicle” value worked out at 0.5. The same compound displayed an anxiety in assay [10] of -20.5. Besides, the “speed second 30 s blue light” value in assay [11] is -81.2. This compound also displayed a hyperkinesis incidence in [12] of 4.76. Also, the “any abnormal body shape incidence” value in assay [13] amounted to 9.52. The speed in dark in assay [20] was -41. Moreover, the “loss of phototaxis incidence” value in assay [14] stood at 42.9. In assay [15], the “speed first 30 s blue light” value was -79.9. In assay [16], the “resting fraction in dark” value is 43. This compound also returned a C-shape incidence in [17] of 0. The “noxious heat displacement strength” value in [18] was -53.2.
